Paper PMC6801405, “Discovery of 3-Arylquinoxaline Derivatives as Potential Anti-Dengue Virus Agents” (International Journal of Molecular Sciences, 2019)

Experiments:
DENV2 = experiment: microbe, parasite or virus in culture; format: cell-based, dengue virus; conditions: for anti-DENV activity in words / inhibition at 10 µM / DENV2 % Inhibition at 10 μM: 10 μM; for anti-DENV activity in words: >32% inhibition of DENV-2 at 10 μM considered as active; for inhibition at 1 µM / inhibition at 10 µM: DENV2, 72 h; for inhibition at 1 µM / inhibition at 10 µM / DENV2 % Inhibition at 10 μM: Huh-7-DV-Fluc cells, three days
Protocol: Anti-DENV activities were determined by firefly luciferase activity.
Huh-7-DV-Fluc cells were seeded in 24-well plates at a density of 2 × 10^4 cells per well, and treated with the 3-arylquinoxaline compounds at two concentrations (1 and 10 μM) or 0.1% DMSO as control. After three days of incubation, the luciferase activity assay was performed using the Bright-Glo Luciferase assay system (Promega, Madison, WI, USA) according to the manufacturer’s instructions.

[1] = Cytotoxicity assay (XTT method); format: cell-based, Human; conditions: human, mean ± SD; for viability at 72 h, 20 µM / viability at 72 h, 200 µM: Huh-7 cells, XTT; for viability at 72 h, 20 µM: read-out: Huh-7 Cell % viability at 20 μM; for viability at 72 h, 200 µM: read-out: Huh-7 Cell % viability at 200 μM
Protocol: For cytotoxicity tests, run in parallel with antiviral assays, plates at an initial density of 5 × 10^3 cells/well were treated with or without serial dilutions of test compounds. Cell viability was determined after 72 h at 37 °C in a humidified CO2 (5%) atmosphere by the (2,3-bis[2-methyloxy-4-nitro-5-sulfophenyl]-2H-tetrazolium-5-carboxanilide) (XTT) method.

COc1ccc(C(=O)c2nc3cc(Cl)c(Cl)cc3nc2-c2ccc(OC)cc2)cc1 [Compound 26b, [6,7-Dichloro-3-(4-methoxyphenyl)quinoxalin-2-yl](4-methoxyphenyl)methanone]
anti-DENV activity in words (DENV2): inactive | inhibition at 1 µM (DENV2; Dengue virus, mean ± SD): 1.17 ± 0.41% | inhibition at 10 µM (DENV2; Dengue virus, mean ± SD): 19.3 ± 3.85% | viability at 72 h, 20 µM [1]: 104 ± 4.22% | viability at 72 h, 200 µM [1]: 99.1 ± 2.4% | melting point: 178.8 to 179 °C

OC(c1ccccc1)c1nc2cc(Cl)c(Cl)cc2nc1-c1ccc(F)cc1 (centres unmarked) [Compound 18a, [6,7-Dichloro-3-(4-fluorophenyl)quinoxalin-2-yl](phenyl)methanol]
inhibition at 1 µM (DENV2; Dengue virus, mean ± SD): 3.41 ± 1.11% | inhibition at 10 µM (DENV2; Dengue virus, mean ± SD): 6.74 ± 1.57% | viability at 72 h, 20 µM [1]: 102 ± 3.96% | viability at 72 h, 200 µM [1]: 21.5 ± 1.6% | melting point: 150 to 150.2 °C

O=C(c1ccccc1)c1nc2ccccc2nc1-c1ccccc1 [Compound 21a, Phenyl(3-phenylquinoxalin-2-yl)methanone]
anti-DENV activity in words (DENV2): inactive | inhibition at 1 µM (DENV2; Dengue virus, mean ± SD): 2.76 ± 1.55% | inhibition at 10 µM (DENV2; Dengue virus, mean ± SD): 7.98 ± 2.14% | viability at 72 h, 20 µM [1]: 107 ± 2.3% | viability at 72 h, 200 µM [1]: 79.5 ± 7.07%

O=C(c1ccc(O)cc1)c1nc2ccccc2cc1-c1ccc(O)cc1 [Compound 4, 2-(4-hydroxybenzoyl)-3-(4-hydroxyphenyl)quinoline, reference compound]
SI (selectivity index, CC50/EC50) (DENV2; CC50 Huh-7 / EC50 DENV): 12.44 | inhibition at 1 µM (DENV2; Dengue virus, mean ± SD): 11.2 ± 2.31% | inhibition at 10 µM (DENV2; Dengue virus, mean ± SD): 41.2 ± 2.88% | EC50 (DENV2; Dengue virus, DENV2, DENV replication, mean ± SD, read-out: EC50 (concentration resulting in a 50% inhibition in virus production)): 13.2 ± 1.23 µM | viability at 72 h, 20 µM [1]: 96.6 ± 8.78% | viability at 72 h, 200 µM [1]: 41.4 ± 5.71% | CC50 at 72 h ([1]; uninfected Huh-7 cells, read-out: CC50 (concentration causing a 50% growth inhibition of uninfected Huh-7 cells)): 164 ± 2.32 µM

COc1ccc(C(O)c2nc3ccccc3nc2-c2ccc(F)cc2)cc1 (centres unmarked) [Compound 17b, [3-(4-Fluorophenyl)quinoxalin-2-yl](4-methoxyphenyl)methanol]
DENV2 % Inhibition at 10 μM (DENV2; mean ± SD): 22.89 ± 4.54% | inhibition at 1 µM (DENV2; Dengue virus, mean ± SD): 19.2 ± 3.5% | inhibition at 10 µM (DENV2; Dengue virus, mean ± SD): 22% | viability at 72 h, 20 µM [1]: 102 ± 1.98% | viability at 72 h, 200 µM [1]: 101 ± 1.27% | melting point: 173 to 174.7 °C

OC(c1ccccc1)c1nc2cc(Cl)c(Cl)cc2nc1-c1ccccc1 (centres unmarked) [Compound 16a, (6,7-Dichloro-3-phenylquinoxalin-2-yl)(phenyl)methanol]
inhibition at 1 µM (DENV2; Dengue virus, mean ± SD): 1.97 ± 0.72% | inhibition at 10 µM (DENV2; Dengue virus, mean ± SD): 6.42 ± 2.97% | viability at 72 h, 20 µM [1]: 108 ± 8.91% | viability at 72 h, 200 µM [1]: 20.6 ± 5.37% | melting point: 136.4 to 136.9 °C

COc1ccc(-c2nc3cc(Cl)c(Cl)cc3nc2C(=O)c2ccccc2)cc1 [Compound 26a, [6,7-Dichloro-3-(4-methoxyphenyl)quinoxalin-2-yl](phenyl)methanone]
inhibition at 1 µM (DENV2; Dengue virus, mean ± SD): 1.95 ± 0.82% | inhibition at 10 µM (DENV2; Dengue virus, mean ± SD): 14.5 ± 2.55% | viability at 72 h, 20 µM [1]: 99.4 ± 6.5% | viability at 72 h, 200 µM [1]: 35.3 ± 4.95% | melting point: 173.9 to 174.3 °C

Oc1ccc(Cc2nc3ccccc3nc2-c2ccc(O)cc2)cc1
melting point: 184.8 to 185.9 °C

O=C(c1ccccc1)c1nc2cc(Cl)c(Cl)cc2nc1-c1ccccc1 [Compound 22a, (6,7-Dichloro-3-phenylquinoxalin-2-yl)(phenyl)methanone]
inhibition at 1 µM (DENV2; Dengue virus, mean ± SD): 12.7 ± 3.91% | inhibition at 10 µM (DENV2; Dengue virus, mean ± SD): 19.7 ± 4.17% | viability at 72 h, 20 µM [1]: 109 ± 1.36% | viability at 72 h, 200 µM [1]: 103 ± 2.67% | melting point: 154.3 to 156.8 °C

O=C(c1ccc(O)cc1)c1nc2ccccc2nc1-c1ccccc1 [Compound 27, (4-Hydroxyphenyl)(3-phenylquinoxalin-2-yl)methanone]
inhibition at 1 µM (DENV2; Dengue virus, mean ± SD): 44.9 ± 3.68% | inhibition at 10 µM (DENV2; Dengue virus, mean ± SD): 48.7 ± 3.48% | viability at 72 h, 20 µM [1]: 102 ± 2.84% | viability at 72 h, 200 µM [1]: 18.4 ± 2.33% | melting point: 196.5 to 199.3 °C

COc1ccc(C(O)c2nc3cc(Cl)c(Cl)cc3nc2-c2ccccc2)cc1 (centres unmarked) [Compound 16b, (6,7-Dichloro-3-phenylquinoxalin-2-yl)(4-methoxyphenyl)methanol]
anti-DENV activity in words (DENV2): inactive | DENV2 % Inhibition at 10 μM (DENV2; mean ± SD): 9.46 ± 2.88% | inhibition at 1 µM (DENV2; Dengue virus, mean ± SD): 2.41 ± 1.48% | inhibition at 10 µM (DENV2; Dengue virus, mean ± SD): 9% | viability at 72 h, 20 µM [1]: 104 ± 4.18% | viability at 72 h, 200 µM [1]: 73 ± 9.05% | melting point: 157.2 to 157.6 °C

O=C(c1ccccc1)c1nc2cc(Cl)c(Cl)cc2nc1-c1ccc(F)cc1 [Compound 24a, (6,7-Dichloro-3-(4-fluorophenyl)quinoxalin-2-yl)(phenyl)methanone]
inhibition at 1 µM (DENV2; Dengue virus, mean ± SD): 2.54 ± 1.21% | inhibition at 10 µM (DENV2; Dengue virus, mean ± SD): 23.5 ± 3.71% | viability at 72 h, 20 µM [1]: 106 ± 2.12% | viability at 72 h, 200 µM [1]: 91.9 ± 2.83% | melting point: 184.3 to 186.4 °C

COc1ccc(-c2nc3cc(Cl)c(Cl)cc3nc2C(O)c2ccc(OC)cc2)cc1 (centres unmarked) [Compound 20b, [6,7-Dichloro-3-(4-methoxyphenyl)quinoxalin-2-yl](4-methoxyphenyl)methanol]
anti-DENV activity in words (DENV2): inactive | inhibition at 1 µM (DENV2; Dengue virus, mean ± SD): 2.75 ± 1.69% | inhibition at 10 µM (DENV2; Dengue virus, mean ± SD): 4.39 ± 1.52% | viability at 72 h, 20 µM [1]: 95.5 ± 3.96% | viability at 72 h, 200 µM [1]: 34.2 ± 4.97% | melting point: 144.1 to 144.5 °C
